Test [1] has as its target T1, Bifunctional epoxide hydrolase 2 (Homo sapiens, UniProt P34913).
T1 sequence (P34913 whole entry): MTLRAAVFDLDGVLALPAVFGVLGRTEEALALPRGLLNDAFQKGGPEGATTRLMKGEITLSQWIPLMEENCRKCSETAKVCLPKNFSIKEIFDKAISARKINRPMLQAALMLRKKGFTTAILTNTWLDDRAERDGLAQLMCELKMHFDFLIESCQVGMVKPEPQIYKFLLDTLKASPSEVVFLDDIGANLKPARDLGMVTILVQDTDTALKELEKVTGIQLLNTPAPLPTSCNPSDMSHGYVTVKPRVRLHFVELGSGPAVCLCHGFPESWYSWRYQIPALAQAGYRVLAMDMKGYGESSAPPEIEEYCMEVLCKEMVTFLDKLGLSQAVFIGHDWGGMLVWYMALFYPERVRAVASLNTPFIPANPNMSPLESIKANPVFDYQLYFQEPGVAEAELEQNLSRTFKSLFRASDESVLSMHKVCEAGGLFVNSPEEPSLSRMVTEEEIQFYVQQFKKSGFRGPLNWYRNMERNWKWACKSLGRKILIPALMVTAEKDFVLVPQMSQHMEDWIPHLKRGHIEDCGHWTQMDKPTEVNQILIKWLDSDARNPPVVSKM
Description: Inhibition of human recombinant soluble epoxide hydrolase by fluorescence assay

Test [2] addresses T2, Bifunctional epoxide hydrolase 2 (Mus musculus, UniProt P34914).
T2 sequence (P34914 whole entry): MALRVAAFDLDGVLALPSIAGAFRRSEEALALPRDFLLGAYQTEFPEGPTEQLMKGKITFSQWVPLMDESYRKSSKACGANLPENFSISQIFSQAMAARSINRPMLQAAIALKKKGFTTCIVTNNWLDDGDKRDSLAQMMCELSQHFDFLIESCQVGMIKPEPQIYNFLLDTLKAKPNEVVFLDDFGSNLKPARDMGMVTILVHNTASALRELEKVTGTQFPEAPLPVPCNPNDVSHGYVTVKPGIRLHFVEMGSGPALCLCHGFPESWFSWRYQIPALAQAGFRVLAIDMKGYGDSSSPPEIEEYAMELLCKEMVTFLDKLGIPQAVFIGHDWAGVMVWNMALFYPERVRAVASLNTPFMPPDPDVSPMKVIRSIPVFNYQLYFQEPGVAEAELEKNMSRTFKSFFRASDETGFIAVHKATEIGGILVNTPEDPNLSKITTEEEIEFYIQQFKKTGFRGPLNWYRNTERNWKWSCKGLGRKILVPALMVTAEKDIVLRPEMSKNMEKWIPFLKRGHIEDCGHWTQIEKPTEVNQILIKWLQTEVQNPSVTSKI
Description: Inhibition of mouse recombinant soluble epoxide hydrolase by fluorescence assay

The term IC50 denotes the concentration needed to halve the response being measured. Lower therefore signals greater potency in that assay. On to `CCC(=O)N1CCC(NC(=O)Nc2ccc(C(=O)OC)cc2)CC1`, for which the IC50 stood at 140 nM in test [1] and 64 nM in test [2].

For `CCC(=O)N1CCC(NC(=O)Nc2cc(OC)c(OC)c(OC)c2)CC1`, in test [1], the IC50 is over 5000 nM.

Turning to `O=C(Nc1ccc(OC(F)(F)F)cc1)NC1CCN(C(=O)CN2CCN(Cc3ccccc3)CC2)CC1`, the IC50 worked out at 1.5 nM in test [1] and 18 nM in test [2].

On to `CCC(=O)N1CCC(NC(=O)Nc2ccc3c(c2)OCO3)CC1`, for which the IC50 amounted to 61 nM in test [1] and 100 nM in test [2].

Values taken from ChEMBL document CHEMBL1255168, “1-Aryl-3-(1-acylpiperidin-4-yl)urea inhibitors of human and murine soluble epoxide hydrolase: structure-activity relationships, pharmacokinetics, and reduction of inflammatory pain” (J Med Chem, 2010).
